{
  "source": "paper PMC11966747",
  "about": "“Next Generation Risk Assessment of Acute Neurotoxicity from Organophosphate Exposures Using the In Vitro–In Silico Derived Dietary Comparator Ratio” (Environmental Science & Technology, 2025)",
  "origin": "cited, not measured here",
  "target": "erythrocyte AChE (Homo sapiens, UniProt P22303)",
  "sequence (P22303 32-617 isoform P22303-2 limits assumed)": "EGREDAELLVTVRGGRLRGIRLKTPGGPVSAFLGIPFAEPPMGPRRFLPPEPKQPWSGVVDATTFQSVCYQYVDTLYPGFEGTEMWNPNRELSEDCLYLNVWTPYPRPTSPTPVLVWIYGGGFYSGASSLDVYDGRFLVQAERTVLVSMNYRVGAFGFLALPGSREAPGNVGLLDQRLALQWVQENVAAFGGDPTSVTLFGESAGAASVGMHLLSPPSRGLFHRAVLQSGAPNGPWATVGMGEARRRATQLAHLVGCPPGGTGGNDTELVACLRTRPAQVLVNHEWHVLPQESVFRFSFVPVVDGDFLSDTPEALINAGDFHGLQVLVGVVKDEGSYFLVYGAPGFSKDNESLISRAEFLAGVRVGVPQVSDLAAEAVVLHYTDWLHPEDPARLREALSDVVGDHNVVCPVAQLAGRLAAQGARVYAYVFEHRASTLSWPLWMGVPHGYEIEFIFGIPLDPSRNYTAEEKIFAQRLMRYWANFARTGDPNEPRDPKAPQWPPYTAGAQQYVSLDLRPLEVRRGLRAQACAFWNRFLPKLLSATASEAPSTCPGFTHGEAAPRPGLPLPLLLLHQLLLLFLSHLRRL",
  "details": "cited from earlier work; for reported or expected adverse health outcome: human, ref Table S2",
  "key": {"[1]": {"details": "1714 mg/kg BW (120 g) acute oral, 13 males and 2 females, ref Moon et al. 2015"}},
  "note": "Where two headings read alike, the source gives them in different places.",
  "data": [
    {"smiles": "COP(=S)(OC)Oc1ccc([N+](=O)[O-])c(C)c1", "note": "[fenitrothion]", "values": [
      {"measurement": "Reported erythrocyte AChE activity/inhibition", "setting": "0.042 mg/kg BW single oral, 3 volunteers, ref Nosáľ and Hladká. 1968", "result": "No significant"},
      {"measurement": "Reported concomitant effects (signs and symptoms)", "setting": "0.06 mg/kg BW single oral, 3 male volunteers, ref Meaklim et al. 2003", "result": "No significant symptoms"},
      {"measurement": "Reported erythrocyte AChE activity/inhibition", "setting": "0.083 mg/kg BW single oral, 9 volunteers, ref Nosáľ and Hladká. 1968", "result": "No significant"},
      {"measurement": "Reported erythrocyte AChE activity/inhibition", "setting": "0.09 mg/kg BW, first dose of repeated exposure study, 8 male and 4 female volunteers, ref Meaklim et al. 2003", "result": "No significant erythrocyte AChE"},
      {"measurement": "Reported erythrocyte AChE activity/inhibition", "setting": "0.17 mg/kg BW single oral, 5 volunteers, ref Nosáľ and Hladká. 1968", "result": "No significant erythrocyte AChE"},
      {"measurement": "Reported concomitant effects (signs and symptoms)", "setting": "0.18 mg/kg BW single oral, 3 male volunteers, ref Meaklim et al. 2003", "result": "No significant symptoms"},
      {"measurement": "Reported erythrocyte AChE activity/inhibition", "setting": "0.18 mg/kg BW, first dose of repeated exposure study, 8 male and 4 female volunteers, ref Meaklim et al. 2003", "result": "No significant erythrocyte AChE"},
      {"measurement": "Reported erythrocyte AChE activity/inhibition", "setting": "0.25 mg/kg BW single oral, 2 volunteers, ref Nosáľ and Hladká. 1968", "result": "No significant erythrocyte AChE"},
      {"measurement": "Reported erythrocyte AChE activity/inhibition", "setting": "0.33 mg/kg BW single oral, 5 volunteers, ref Nosáľ and Hladká. 1968", "result": "No significant erythrocyte AChE"},
      {"measurement": "Reported concomitant effects (signs and symptoms)", "setting": "0.36 mg/kg BW single oral, 3 male volunteers, ref Meaklim et al. 2003", "result": "No symptoms or adverse effects"},
      {"measurement": "Reported concomitant effects (signs and symptoms)", "setting": "36 mg/kg BW (2.5 g) acute oral, person, ref Kojima et al. 1989", "result": "Toxic symptoms occurred"},
      {"measurement": "Reported concomitant effects (signs and symptoms)", "setting": "71 mg/kg BW (5 g) acute oral, person, ref Yoshida and Kuroki. 2010 (original data of Koyama et al. 2006)", "result": "Toxic symptoms occurred"},
      {"measurement": "Reported concomitant effects (signs and symptoms)", "setting": "143 mg/kg BW (10 g) acute oral, person, ref Yoshida and Kuroki. 2010 (original data of Koyama et al. 2006)", "result": "Toxic symptoms occurred"},
      {"measurement": "Reported concomitant effects (signs and symptoms)", "setting": "214 mg/kg BW (15 g) acute oral, person five, ref Yoshida and Kuroki. 2010 (original data of Koyama et al. 2006)", "result": "Toxic symptoms occurred"},
      {"measurement": "Reported concomitant effects (signs and symptoms)", "setting": "214 mg/kg BW (15 g) acute oral, person three, ref Yoshida and Kuroki. 2010 (original data of Koyama et al. 2006)", "result": "Toxic symptoms occurred"},
      {"measurement": "Reported concomitant effects (signs and symptoms)", "setting": "286 mg/kg BW (20 g) acute oral, person, ref Sakamoto et al. 1984", "result": "Toxic symptoms occurred"},
      {"measurement": "Reported concomitant effects (signs and symptoms)", "setting": "357 mg/kg BW (25 g) acute oral, person eleven, ref Yoshida and Kuroki. 2010 (original data of Koyama et al. 2006)", "result": "Toxic symptoms occurred"},
      {"measurement": "Reported concomitant effects (signs and symptoms)", "setting": "357 mg/kg BW (25 g) acute oral, person twelve, ref Yoshida and Kuroki. 2010 (original data of Koyama et al. 2006)", "result": "Toxic symptoms occurred"},
      {"measurement": "Reported concomitant effects (signs and symptoms)", "setting": "357 mg/kg BW (25 g) acute oral, person, ref Martinez-Chuecos et al. 1992", "result": "Toxic symptoms occurred"},
      {"measurement": "Reported concomitant effects (signs and symptoms)", "setting": "429 mg/kg BW (30 g) acute oral, person, ref Yoshida et al. 1987", "result": "Toxic symptoms occurred"},
      {"measurement": "Reported concomitant effects (signs and symptoms)", "setting": "429 mg/kg BW (30.0 ± 19.7 g) acute oral, 4 males and 6 females, ref Inoue et al. 2008", "result": "Toxic symptoms occurred"},
      {"measurement": "Reported concomitant effects (signs and symptoms)", "setting": "500 mg/kg BW (35 g) acute oral, person fourteen, ref Yoshida and Kuroki. 2010 (original data of Koyama et al. 2006)", "result": "Toxic symptoms occurred"},
      {"measurement": "Reported concomitant effects (signs and symptoms)", "setting": "500 mg/kg BW (35 g) acute oral, person two, ref Yoshida and Kuroki. 2010 (original data of Koyama et al. 2006)", "result": "Toxic symptoms occurred"},
      {"measurement": "Reported concomitant effects (signs and symptoms)", "setting": "536 mg/kg BW (37.5 g) acute oral, person, ref Yoshida and Kuroki. 2010 (original data of Koyama et al. 2006)", "result": "Toxic symptoms occurred"},
      {"measurement": "Reported concomitant effects (signs and symptoms)", "setting": "571 mg/kg BW (40 g) acute oral, person, ref Park and Choi. 2017", "result": "Toxic symptoms occurred"},
      {"measurement": "Reported concomitant effects (signs and symptoms)", "setting": "714 mg/kg BW (50 g) acute oral, person eight, ref Yoshida and Kuroki. 2010 (original data of Koyama et al. 2006)", "result": "Toxic symptoms occurred"},
      {"measurement": "Reported concomitant effects (signs and symptoms)", "setting": "714 mg/kg BW (50 g) acute oral, person four, ref Yoshida and Kuroki. 2010 (original data of Koyama et al. 2006)", "result": "Toxic symptoms occurred"},
      {"measurement": "Reported concomitant effects (signs and symptoms)", "setting": "714 mg/kg BW (50 g) acute oral, person nine, ref Yoshida and Kuroki. 2010 (original data of Koyama et al. 2006)", "result": "Toxic symptoms occurred"},
      {"measurement": "Reported concomitant effects (signs and symptoms)", "setting": "714 mg/kg BW (50 g) acute oral, person one, ref Yoshida and Kuroki. 2010 (original data of Koyama et al. 2006)", "result": "Toxic symptoms occurred"},
      {"measurement": "Reported concomitant effects (signs and symptoms)", "setting": "714 mg/kg BW (50 g) acute oral, person ten, ref Yoshida and Kuroki. 2010 (original data of Koyama et al. 2006)", "result": "Toxic symptoms occurred"},
      {"measurement": "Reported concomitant effects (signs and symptoms)", "setting": "714 mg/kg BW (50 g) acute oral, person thirteen, ref Yoshida and Kuroki. 2010 (original data of Koyama et al. 2006)", "result": "Toxic symptoms occurred"},
      {"measurement": "Reported concomitant effects (signs and symptoms)", "setting": "[1]", "result": "toxic symptoms occurred"},
      {"measurement": "Reported erythrocyte AChE activity/inhibition", "setting": "[1]", "result": "Significantly decreased"},
      {"measurement": "Reported concomitant effects (signs and symptoms)", "setting": "1786 mg/kg BW (125.0 ± 35.4 g) acute oral, one male and one female, ref Inoue et al. 2008", "result": "Toxic symptoms occurred"},
      {"measurement": "reported or expected adverse health outcome", "setting": "single oral 0.042 mg/kg BW, 0.042 mg/kg", "result": "negative"},
      {"measurement": "reported or expected adverse health outcome", "setting": "single oral 0.042 mg/kg BW, listed as Fenitrothion, 0.042 mg/kg", "result": "No"},
      {"measurement": "reported or expected adverse health outcome", "setting": "single oral 0.06 mg/kg BW, 0.06 mg/kg", "result": "negative"},
      {"measurement": "reported or expected adverse health outcome", "setting": "single oral 0.06 mg/kg BW, listed as Fenitrothion, 0.06 mg/kg", "result": "No"},
      {"measurement": "reported or expected adverse health outcome", "setting": "single oral 0.083 mg/kg BW, 0.083 mg/kg", "result": "negative"},
      {"measurement": "reported or expected adverse health outcome", "setting": "single oral 0.083 mg/kg BW, listed as Fenitrothion, 0.083 mg/kg", "result": "No"},
      {"measurement": "reported or expected adverse health outcome", "setting": "single oral 0.09 mg/kg BW, 0.09 mg/kg", "result": "negative"},
      {"measurement": "reported or expected adverse health outcome", "setting": "single oral 0.09 mg/kg BW, listed as Fenitrothion, 0.09 mg/kg", "result": "No"},
      {"measurement": "reported or expected adverse health outcome", "setting": "single oral 0.17 mg/kg BW, 0.17 mg/kg", "result": "negative"},
      {"measurement": "reported or expected adverse health outcome", "setting": "single oral 0.17 mg/kg BW, listed as Fenitrothion, 0.17 mg/kg", "result": "No"},
      {"measurement": "reported or expected adverse health outcome", "setting": "single oral 0.18 mg/kg BW, 0.18 mg/kg", "result": "negative"},
      {"measurement": "reported or expected adverse health outcome", "setting": "single oral 0.18 mg/kg BW, listed as Fenitrothion, 0.18 mg/kg", "result": "No"},
      {"measurement": "reported or expected adverse health outcome", "setting": "single oral 0.25 mg/kg BW, 0.25 mg/kg", "result": "negative"},
      {"measurement": "reported or expected adverse health outcome", "setting": "single oral 0.25 mg/kg BW, listed as Fenitrothion, 0.25 mg/kg", "result": "No"},
      {"measurement": "reported or expected adverse health outcome", "setting": "single oral 0.33 mg/kg BW, 0.33 mg/kg", "result": "negative"},
      {"measurement": "reported or expected adverse health outcome", "setting": "single oral 0.33 mg/kg BW, listed as Fenitrothion, 0.33 mg/kg", "result": "No"},
      {"measurement": "reported or expected adverse health outcome", "setting": "single oral 0.36 mg/kg BW, 0.36 mg/kg", "result": "negative"},
      {"measurement": "reported or expected adverse health outcome", "setting": "single oral 0.36 mg/kg BW, listed as Fenitrothion, 0.36 mg/kg", "result": "No"},
      {"measurement": "reported or expected adverse health outcome", "setting": "single oral 36 mg/kg BW, 36 mg/kg", "result": "positive"},
      {"measurement": "reported or expected adverse health outcome", "setting": "single oral 36 mg/kg BW, listed as Fenitrothion, 36 mg/kg", "result": "Yes"},
      {"measurement": "reported or expected adverse health outcome", "setting": "single oral 71 mg/kg BW, 71 mg/kg", "result": "positive"},
      {"measurement": "reported or expected adverse health outcome", "setting": "single oral 71 mg/kg BW, listed as Fenitrothion, 71 mg/kg", "result": "Yes"},
      {"measurement": "reported or expected adverse health outcome", "setting": "single oral 143 mg/kg BW, 143 mg/kg", "result": "positive"}
    ]}
  ]
}
